Experimental data published in patent US20120115895A1, “TRICYCLIC INDOLE-DERIVED SPIRO DERIVATIVES AS CRTH2 MODULATORS” (Merck Serono S.A., priority 2009, published 2012).

Biological target: T1, CRTH2 (Homo sapiens, UniProt Q9Y5Y4)
T1 sequence (Q9Y5Y4 1-395): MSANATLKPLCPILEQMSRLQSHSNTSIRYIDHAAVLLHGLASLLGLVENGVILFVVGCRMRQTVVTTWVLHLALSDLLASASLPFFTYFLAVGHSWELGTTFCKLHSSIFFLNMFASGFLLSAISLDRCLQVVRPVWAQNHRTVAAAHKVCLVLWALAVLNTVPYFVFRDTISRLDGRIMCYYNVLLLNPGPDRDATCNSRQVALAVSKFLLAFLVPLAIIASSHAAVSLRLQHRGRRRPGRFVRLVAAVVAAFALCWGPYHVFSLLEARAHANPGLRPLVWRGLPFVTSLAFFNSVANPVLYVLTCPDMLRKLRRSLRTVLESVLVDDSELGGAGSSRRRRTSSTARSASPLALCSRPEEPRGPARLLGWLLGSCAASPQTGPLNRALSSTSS
Assay: Radioligand binding Scintillation Proximity Assay ([3H]PGD2, hCRTH2-CHO cell membranes)
Parameters: host or cells: CHO cells
Conditions: 1.5 nM [3H]PGD2, hCRTH2-CHO membranes, SPA; read-out: IC50 binding
Protocol: Adherent CHO cells expressing hCRTH2 (Euroscreen, Belgium) were cultured in 225 cm2 cell culture flasks (Corning, USA) in 30 ml of medium. After two rinses of phosphate buffered saline (PBS), cells were harvested in 10 ml of PBS containing 1 mM EDTA, centrifuged at 500×g for 5 min at 4° C. and frozen at −80° C. The pellet was re-suspended in 50 mM Tris-HCl, pH 7.4, 2 mM EDTA, 250 mM Sucrose, containing protease inhibitor cocktail tablets, (Complete EDTA-free, Roche, Germany) and incubated 30 min at 4° C. Cells were disrupted by nitrogen cavitation (Parr Instruments, USA) at 4° C. (800 p.s.i. for 30 min), and centrifuged at 500×g for 10 min at 4° C. Pellet containing nuclei and cellular debris was discarded and supernatant was centrifuged 60 min at 4° C. at 45000×g. Membrane pellet was re-suspended in storage buffer (10 mM HEPES/KOH pH 7.4, 1 mM EDTA, 250 mM sucrose, protease inhibitor cocktail tablets) using Dounce homogenization and frozen in liquid nitrogen, and stored at −80° C.
The inhibitory activity can be investigated by a radioligand binding Scintillation Proximity Assay (SPA) (Sawyer et al., Br. J. Pharmocol 2002, 137, 1163-72). The SPA radioligand binding assay was performed at room temperature in binding buffer (10 mM HEPES/KOH pH 7.4, 10 mM MnC12, with protease inhibitor cocktail tablets), containing 1.5 nM [3H]PGD2 (Perkin Elmer), 10-50 μg/ml of hCRTH2—CHO cell membrane protein and 2 mg/ml of Wheat-germ agglutinin Scintillation Proximity Assay beads (RPNQ0001, GE-Healthcare) in a final volume of 100 μl in 96 well plates (Corning, USA). Non-specific binding was determined in the presence of 10 μM PGD2 (Cayman, USA). Competing Compounds of Formula (I) were diluted in dimethylsulphoxide so that the total volume of dimethylsulfoxide was kept constant at 1% dimethylsulphoxide (Me2SO). Serial dilutions of 100 μM to 100 pM were prepared and 10 μl each of the compounds of Formula (I) stock solutions were added to the binding assay reagents and incubated for 90 min with agitation at room temperature. Binding activity was determined by using a 1450 Micro-beta scintillation counter (Wallac, UK).

SMILES | IC50 [µM]
CCCN1C(=O)N(Cc2cc(Cl)ccc2F)C(=O)C12C(=O)N(CC(=O)O)c1ccc(Cl)cc12 (single isomer, unassigned) [Example 4] | 0.144
CCN1C(=O)N(Cc2cc(Cl)ccc2F)C(=O)C12C(=O)N(CC(=O)O)c1ccc(Cl)cc12 (single isomer, unassigned; (+)) [Example 3, [(+)-5′-chloro-1-(5-chloro-2-fluorobenzyl)-3-ethyl-2,2′,5-trioxospiro[imidazolidine-4,3′-indol]-1′(2′H)-yl]acetic acid] | 0.336
CN1C(=O)N(Cc2cc(Cl)ccc2F)C(=O)C12C(=O)N(CC(=O)O)c1ccc(Cl)cc12 (stereo not shown) [Example 1, [5′-chloro-1-(5-chloro-2-fluorobenzyl)-3-methyl-2,2′,5-trioxospiro[imidazolidine-4,3′-indol]-1′(2′H)-yl]acetic acid] | 0.062
CC(C)c1nc(CN2C(=O)N(C)C3(C2=O)C(=O)N(CC(=O)O)c2ccc(Cl)cc23)cs1 (stereo not shown) [Example 5, [5′-chloro-1-[(2-isopropyl-1,3-thiazol-4-yl)methyl]-3-methyl-2,2′,5-trioxospiro[imidazolidine-4,3′-indol]-1′(2′H)-yl]acetic acid] | 0.628
CN1C(=O)N(Cc2cn(-c3ccccc3)nc2-c2ccccc2)C(=O)C12C(=O)N(CC(=O)O)c1ccc(Cl)cc12 (stereo not shown) [Example 6, [5′-chloro-1-[(1,3-diphenyl-1H-pyrazol-4-yl)methyl]-3-methyl-2,2′,5-trioxospiro[imidazolidine-4,3′-indol]1′(2′H)-yl]acetic acid] | 0.123
Cc1onc(-c2ccccc2)c1CN1C(=O)N(C)C2(C1=O)C(=O)N(CC(=O)O)c1ccc(Cl)cc12 (stereo not shown) [Example 7, [5′-chloro-3-methyl-1-[(5-methyl-3-phenylisoxazol-4-yl)methyl]-2,2′,5-trioxospiro[imidazolidine-4,3′-indol]-1′(2′H)-yl]acetic acid] | 0.148
CN1C(=O)N(Cc2csc(-c3ccccc3)n2)C(=O)C12C(=O)N(CC(=O)O)c1ccc(Cl)cc12 (stereo not shown) [Example 8, [5′-chloro-3-methyl-2,2′,5-trioxo-1-[(2-phenyl-1,3-thiazol-4-yl)methyl] Spiro[imidazolidine-4,3′-indol]-1′(2′H)-yl]acetic acid] | 0.044
COc1c(C)cnc(CN2C(=O)N(C)C3(C2=O)C(=O)N(CC(=O)O)c2ccc(Cl)cc23)c1C (stereo not shown) [Example 9, [5′-chloro-1-[(4-methoxy-3,5-dimethylpyridin-2-yl)methyl]-3-methyl-2,2′,5-trioxospiro[imidazolidine-4,3′-indol]-1′(2′H)-yl]acetic acid] | 0.363
CN1C(=O)N(Cc2cc(F)ccc2F)C(=O)C12C(=O)N(CC(=O)O)c1ccc(Cl)cc12 (stereo not shown) [Example 10, [5′-chloro-1-(2,5-difluorobenzyl)-3-methyl-2,2′,5-trioxospiro[imidazolidine-4,3′-indol]-1′(2′H)-yl]acetic acid] | 0.498
CN1C(=O)N(Cc2nc3ccccc3s2)C(=O)C12C(=O)N(CC(=O)O)c1ccc(Cl)cc12 (stereo not shown) [Example 11, [1-(1,3-benzothiazol-2-ylmethyl)-5′-chloro-3-methyl-2,2′,5-trioxospiro[imidazolidine-4,3′-indol]-1′(2′H)-yl]acetic acid] | 0.945
CN1C(=O)N(CCc2ccccc2Cl)C(=O)C12C(=O)N(CC(=O)O)c1ccc(Cl)cc12 (stereo not shown) [Example 12, [5′-chloro-1-[2-(2-chlorophenyl)ethyl]-3-methyl-2,2′,5-trioxospiro[imidazolidine-4,3′-indol]-1′(2′H)-yl]acetic acid] | 0.74
CN1C(=O)N(CCc2cccc(F)c2)C(=O)C12C(=O)N(CC(=O)O)c1ccc(Cl)cc12 (stereo not shown) [Example 13, [15′-chloro-1-[2-(3-fluorophenyl)ethyl]-3-methyl-2,2′,5-trioxospiro[imidazolidine-4,3′-indol]-1′(2′H)-yl]acetic acid] | 0.916
CN1C(=O)N(CCc2ccccc2F)C(=O)C12C(=O)N(CC(=O)O)c1ccc(Cl)cc12 (stereo not shown) [Example 14, [15′-chloro-1-[2-(2-fluorophenyl)ethyl]-3-methyl-2,2′,5-trioxospiro[imidazolidine-4,3′-indol]-1′(2′H)-yl]acetic acid] | 0.94
